The subject of series [1] is cfDNA. The series is described as follows: cfDNA stability: Qubit HS DNA Assay, total plasma cfDNA. From the text:
(§1) The drawn blood samples were stored at room temperature for up to 7 days. Total cell-free nucleic acids were isolated from day 0 or day 7 blood samples using Qiagen's QIAamp Circulating Nucleic Acid Kit.
(§2) The resultant plasma cfDNA was first studied with Qubit HS DNA Assay (FIG. 5A), which quantifies the concentration of total plasma cfDNA. Without proper stabilization, white blood cells in drawn blood will lyse during storage and release large amounts of genomic DNA fragments into the plasma, leading to elevated total plasma cfDNA. Compared to cfDNA originating from white blood cells, tumor-derived cfDNA is preset at a very low concentration. Tumor-derived cfDNA should not be detectable in healthy donors.

A further series relates to plasma proteins. In words: Venous blood, Luminex xMAP Multiplex Immunoassay Panel. Format: cell-based. The note with it: room temperature storage, 3 to 5 days. As for the experimental part: After double-spin process, isolated plasma fractions were tested with Luminex xMAP Multiplex Immunoassay Panel.
The next series concerns RBC. In words: In vitro hemolysis, absorbance at 414 nm (Nanodrop). Format: cell-based. To be noted: venous blood, room temperature up to 5 days, N=15. The source says:
Hemolysis was quantitatively measured by following the absorbance at 414 nm with Nanodrop. An increased A414 indicates releasing of hemoglobin from broken RBC, which is a key event of hemolysis.

The next series deals with red blood cells. The series is described as follows: TAP II capillary blood study: hemolysis (A414). The series is classed as cell-based. To be noted: venous blood and TAP II capillary blood, up to 3 days room temperature. From the text: Blood samples were stored at room temperature for up to 3 days.
In the next series the test system is β-Actin DNA (ACTB). In words: Spray-coated microcollection tubes: plasma β-Actin by ddPCR. As for the experimental part:
(§3) Blood was collected from healthy donors, each collected into 1×5 mL EDTA vacutainer tubes and virgin (no anticoagulant). Next, venous blood was aliquoted as quickly as possible into the spray-coated microtainers. The EDTA blood was aliquoted into virgin Greiner microtainers as negative controls. The blood with no anticoagulant was aliquoted into microcollection tubes spray coated with one of three formulations noted in Table 2 below, with two tubes per formulation. The sprayed microtainers were then mixed 15-20 times with the blood sample.
(§4) Half of the samples were analyzed at draw time and the remaining half were stored at room temperature for 3 days before analysis. Plasma protein concentration of TGF-β1 was analyzed with Ella (FIG. 10). Plasma β-Actin level was determined by ddPCR (FIG. 11).

Series [2] relates to cfRNA. The series is described as follows: cfRNA stability: Agilent RNA Pico Kit, Bioanalyzer. The note with it: day 7 versus freshly collected blood. From the text:
(§5) Total cell-free nucleic acids were isolated from day 0 or day 7 blood samples using Qiagen's QIAamp Circulating Nucleic Acid Kit.
The plasma cfRNA was first analyzed with Agilent's RNA Pico Kit on the Agilent Bioanalyzer system (FIG. 6A).

For a further series, the system named is TGF-β1. In words: Spray-coated microcollection tubes: plasma TGF-β1 (Ella). Format: cell-based. To be noted: 3-day room temperature storage, spray-coated microcollection tubes (FIG. 10). As for the experimental part:
as §3, §4

Series [3] has as its system cfDNA. The series is described as follows: cfDNA stability: Agilent cfDNA ScreenTape Assay.
From the text: as §1
Plasma cfDNA was further analyzed with Agilent cfDNA ScreenTape Assay on Agilent TapeStation (FIGS. 5C & 5D). […] Thus, the percentage of cfDNA between 150-300 bp among total cfDNA (% cfDNA) was used to indicate genomic DNA contamination (FIG. 5D).

The test system of series [4] is platelets. In words: Tasso+ capillary blood study: plasma MPO and RANTES. To be noted: venous and Tasso+ capillary blood, up to 3 days room temperature. Format: cell-based. On the procedure: Tasso+ is a single-use device that collects up to 0.5 mL of capillary blood from a donor's upper arm. Tasso+ is compatible with BD Microtainer® Blood Collection Tubes.
Capillary blood samples were collected from 3 donors. […] Blood samples were stored at room temperature for up to 3 days. Three functionality assays were conducted, including measuring hemolysis (FIG. 8A) and testing the plasma level of MPO (FIG. 8B) and RANTES (FIG. 8C).

The subject of series [5] is cfRNA. In words: cfRNA stability: Qubit miRNA Assay, total plasma cfRNA. The note with it: 7 days ambient storage.
From the text: as §5
Qubit miRNA Assay was used to quantify the concentration of total plasma cfRNA. If RNA-containing cells, such as reticulocytes and white blood cells, were lysed during storage, then large amounts of RNA fragments would be released into plasma, masking the very low abundant circulating cfRNA while resulting in elevated cfRNA.

Another series relates to β-actin (ACTB). In words: cfDNA stability: plasma β-actin (ACTB) by digital droplet PCR. To be noted: day 7 blood, ambient storage.
From the text: as §1, §2

Series [6] deals with platelets. The series is described as follows: First round screening of platelet activation inhibitors: plasma TGF-β1 by Ella immunoassay. The series is classed as cell-based. To be noted: inhibitor added to Streck B formulation; venous blood at room temperature; data not shown. As for the experimental part: Blood specimens drawn from 3 donors were stored at room temperature for […]. Activated platelet secret granule contents, such as growth factors, chemokines, and cytokines, into plasma. Elevated plasma concentration of TGF-β1 indicates platelet activation and granule release. Plasma TGF-β1 level was measured with immunoassay using Ella Automated Immunoassay System. Freshly drawn blood (day 0), blood stored for 1 day (Day 1), 3 days (Day 3), and 7 days (Day 7) were tested.
The tested formulations are compared with EDTA and ACD-A for their ability to prevent granule release from platelets. Streck B formulation spiked with 2 mM tetracaine was also used as a reference.

Series [7] deals with white blood cells, red blood cells, and platelets. The series is described as follows: Third round screening: plasma MPO, ferritin and RANTES as blood cell damage indicators. Format: cell-based. To be noted: inhibitor in Streck B formulation; 7-day room temperature storage; data not shown. On the procedure:
The effects of these seven inhibitors on white blood cells, red blood cells, and platelets were evaluated during the third round of screening. […] Therefore, plasma levels of myeloperoxidase (MPO), ferritin, and RANTES were measured with immunoassay as damage indicators of white blood cells, red blood cells, and platelets, respectively. Preservative formulations were made by adding platelet activation inhibitors to Streck B formulation at concentrations determined through the second round of screening. Venous blood was collected from 2 donors for all preservative formulations. EDTA, ACD-A, Streck B formulation and Streck B formulation spiked with 2 mM Tetracaine were used as references. Draw whole blood samples were stored at room temperature for up to 7 days.

In series [8] the test system is platelets. The series is described as follows: Second round screening: % activated platelets (CD62P/CD61 flow cytometry) and plasma TGF-β1. The series is classed as cell-based. The note with it: inhibitor in Streck B formulation at 3 to 5 dosages; room temperature up to 7 days; data not shown. On the procedure:
Preservative formulations were made by adding platelet activation inhibitors to the Streck B formulation at the desired concentrations. Venous blood specimens from 2 donors were then drawn into blood collection tubes (BCTs) prefilled with these formulations. As references, blood specimens were also drawn into EDTA tubes, ACD-A tubes, tubes filed with Streck B formulation, and tubes containing Streck B formulation spiked with and 2 mM tetracaine. Blood specimens were stored at room temperature for up to 7 days.
The percentages of activated platelets (CD62P positive) among total platelets (CD61 positive) in drawn whole blood were measured by flow cytometry. The percentage of activated platelets was tested with Day 0 and Day 3 blood specimens. The plasma levels of TGF-β1 in Day 0, Day 1, Day 3, and Day 7 old blood specimens were measured with immunoassay.
A general note: Flow cytometry measures light scatter and fluorescence of single cells or particles in a stream.

For series [9], the system named is platelets. To be noted: 2 mM mexiletine or 1 mM verapamil in Streck B formulation; tubes stored 2-50° C. up to 8 weeks; data not shown. The source says: Freshly made tubes, 2 weeks old tubes, 4 weeks old tubes, and 8 weeks old tubes were then used to collect venous blood from 2 self-proclaimed healthy donors. Blood specimens were stored at room temperature for up to 3 days. The percentage of platelet activation and plasma level of TGF-31 to test the ability of the aged formulation to prevent platelets activation at collection time and during room temperature storage.

Molecules are shown by their SMILES. “Also recorded” adds a separate entry of the source.

For `O=C(O)CN(CCN(CC(=O)O)CC(=O)O)CC(=O)O` [EDTA, ethylene diamine tetra acetic acid], the “total plasma cfDNA concentration” value is “low concentrations of cfDNA” with cfDNA [1] (day 0 blood) and “elevated total cfDNA” in the series with cfDNA [1] (day 7 blood, room temperature). In addition, the “plasma concentrations of representative proteins and cytokines (FIG. 2: MPO, TGF-β1, CCL5/RANTES, MMP-9, VEGF, Granzyme B, TNFα, IL-8)” value with plasma proteins is reported as “elevated levels; also recorded: marked increase”. Besides, the “in vitro hemolysis (A414)” value with RBC is given as “in vitro hemolysis since day 3; also recorded: significant hemolysis”. Besides, the hemolysis entry in the series on red blood cells is listed as “induces hemolysis”. In addition, the “level of β-Actin in 3-day old plasma versus draw time plasma” value with β-Actin DNA (ACTB) (3 days room temperature (FIG. 11)) is “more than 20 fold”. Also, the “plasma β-Actin DNA level after storage (genomic DNA contamination)” value in the series with β-Actin DNA (ACTB) (3 days room temperature, spray-coated tubes (FIG. 11)) is recorded as “led to genomic DNA (β-Actin) contamination”. Also, in the series on cfRNA [2], the “plasma cfRNA electropherogram (concentration and population)” value is recorded as “greatly changed”. For the same compound, the “change of plasma TGF-β1 level after storage” value in the series on TGF-β1 was “drastically increased”. Further, the “% cfDNA (cfDNA between 150-300 bp among total cfDNA)” value with cfDNA [3] (Day 0 blood) was 75%; in the series on cfDNA [3] (Day 7 blood, room temperature) it was 30%. Also, the “plasma cfDNA electropherogram plots” value with cfDNA [3] (Day 7 blood) is recorded as “prominent peak of apoptotic-ladder DNA”. The “granule release from activated platelets (plasma MPO and RANTES)” value in the series on platelets [4] was “increased”. Also, in the series on cfRNA [5], the “increase of total cfRNA after storage” value is recorded as approximately 5 fold. The “plasma level of β-actin (ACTB) DNA” value with β-actin (ACTB) was “high amount of ACTB”.
In the case of `CCCCN1CCCCC1C(=O)Nc1c(C)cccc1C` (stereo not drawn) [bupivacaine], in the series on platelets [6], the “outcome of first round screening (maintaining plasma TGF-β1 comparable to Streck B formulation with tetracaine)” value (“outcome of first round screening” for short) is on record as “graduated from the first round of the screening”. Also, the “adverse effects on white blood cells, red blood cells and platelet” value (shortened to “adverse effects on white blood cells”) in [7] was “little adverse effects”. Besides, the “ability to reduce platelet activation in second round screening” value (“ability to reduce platelet activation” for short) in the series on platelets [8] is recorded as “behaved at least comparable to each other”.
The corresponding values for `COc1ccc([C@@H]2Sc3ccccc3N(CCN(C)C)C(=O)[C@@H]2OC(C)=O)cc1` [diltiazem] are “graduated from the first round of the screening”, “little adverse effects” and “behaved at least comparable to each other”.
In the case of `CCN(CC)CC(=O)Nc1c(C)cccc1C` [lidocaine], the “adverse effects on white blood cells” value in series [7] was “little adverse effects”. Further, in the series with platelets [8], the “ability to reduce platelet activation” value is given as “behaved at least comparable to each other”.
As for `Cc1cccc(C)c1NC(=O)C1CCCCN1C` (stereo not drawn) [mepivacaine], the “outcome of first round screening” value with platelets [6] is “graduated from the first round of the screening”. Moreover, the “adverse effects on white blood cells” value in series [7] is listed as “little adverse effects”. In addition, the “ability to reduce platelet activation” value with platelets [8] is reported as “behaved at least comparable to each other”.
`Cc1cccc(C)c1OCC(C)N` (stereo not drawn) [mexiletine]: the “outcome of first round screening” value in the series with platelets [6] is listed as “graduated from the first round of the screening”. Besides, the “adverse effects on white blood cells” value in series [7] was “little adverse effects”. Besides, the “ability to reduce platelet activation” value in the series with platelets [8] was “behaved at least comparable to each other”. Further, the “functional stability of aged formulations compared to other tested ion inhibitors” value in the series with platelets [9] is reported as “better functional stability”.
With `C=C[C@H]1C[N@@]2CC[C@H]1C[C@@H]2[C@@H](O)c1ccnc2ccc(OC)cc12` [quinidine], in the series on platelets [6], the “outcome of first round screening” value is listed as “graduated from the first round of the screening”. Moreover, in [7], the “adverse effects on white blood cells” value is on record as “little adverse effects”. In addition, in the series on platelets [8], the “ability to reduce platelet activation” value is “behaved at least comparable to each other”.
In the case of `COc1ccc(CCN(C)CCCC(C#N)(c2ccc(OC)c(OC)c2)C(C)C)cc1OC` (stereo not drawn) [verapamil], the “outcome of first round screening” value in the series on platelets [6] is recorded as “graduated from the first round of the screening”. In addition, the “adverse effects on white blood cells” value in series [7] is “little adverse effects”. Further, the “ability to reduce platelet activation” value in the series with platelets [8] is listed as “behaved at least comparable to each other”.
